Tested on: Human recombinant GST-PI3K
Assay: PI3K induced-lipid phosphorylation, neomycin-SPA scintillation proximity assay
Format: biochemical
Conditions: Human recombinant GST-PI3K, SPA
Text: The efficacy of compounds of the invention in inhibiting the PI3K induced-lipid phosphorylation may be tested in the following binding assay. The assay combines the scintillation proximity assay technology (SPA, Amersham) with the capacity of neomycin (a polycationic antibiotic) to bind phospholipids with high affinity and specificity. The Scintillation Proximity Assay is based on the properties of weakly emitting isotopes (such as ^3H, ^125I, ^33P). Coating SPA beads with neomycin allows the detection of phosphorylated lipid substrates after incubation with recombinant PI3K and radioactive ATP in the same well, by capturing the radioactive phospholipids to the SPA beads through their specific binding to neomycin.
To a 96 wells MTP containing 10 μL of the test compound of Formula (I) (solubilized in 10% DMSO; […]), the following assay components are added: 1) 10 μL of lipid micelles 2) 20 μL of Kinase buffer ([^33P]γATP162 μM/300 nCi, MgCl2 2.5 mM, DTT 2.5 mM, Na3VO4 25 uM in Hepes 40 mM, pH 7.4) and 3) 10 μL (100 ng) of Human recombinant GST-PI3K (in Hepes 40 mM, pH 7.4, ethylenglycol 4%). After incubation at room temperature for 120 minutes, with gentle agitation, the reaction is stopped by addition of 200 μL of a solution containing 250 μg of neomycin-coated PVT SPA beads, ATP 60 mM and EDTA 6.2 mM in PBS. The assay is further incubated at room temperature for 60 minutes with gentle agitation to allow binding of phospholipids to neomycin-SPA beads. After precipitation of the neomycin-coated PVT SPA beads for 5 minutes at 1500×g, radioactive PtdIns(3)P is quantified by scintillation counting in a Wallac MicroBeta™ plate counter.
The values indicated in Table I below refer to the IC50 (μM) with respect to PI3K, i.e. the amount necessary to achieve 50% inhibition of said target. Said values show a considerable inhibitory potency of quinoxaline compounds with regard to PI3K.

Question: For `COc1cc(CN(C)C)cc(Nc2nc3ccccc3nc2NS(=O)(=O)c2cn(C)cn2)c1` [Example 95, N-[3-({3-[(Dimethylamino)methyl]-5-methoxyphenyl}amino)quinoxalin-2-yl]-1-methyl-1H-imidazole-4-sulfonamide], which IC50 is on record?
Answer: 1100 nM

Question: For `COc1ccc(CCCO)c(Nc2nc3ccccc3nc2NS(=O)(=O)c2cn(C)c(CS(C)(=O)=O)n2)c1` [Example 76, N-(3-{[2-(3-Hydroxypropyl)-5-methoxyphenyl]amino}quinoxalin-2-yl)-1-methyl-2-[(methylsulfonyl)methyl]-1H-imidazole-4-sulfonamide], which IC50 is on record?
Answer: 87 nM

Question: For `COCCc1ccc(OC)cc1Nc1nc2ccccc2nc1NS(=O)(=O)c1cn(C)c(CS(C)(=O)=O)n1` [Example 79, N-(3-{[5-Methoxy-2-(2-methoxyethyl)phenyl]amino}quinoxalin-2-yl)-1-methyl-2-[(methylsulfonyl)methyl]-1H-imidazole-4-sulfonamide], which IC50 is on record?
Answer: 200 nM

Question: For `COc1ccc(CCS(C)(=O)=O)c(Nc2nc3ccccc3nc2NS(=O)(=O)c2cn(C)cn2)c1` [Example 40, N-[3-({5-Methoxy-2-[2-(methylsulfonyl)ethyl]phenyl}amino)quinoxalin-2-yl]-1-methyl-1H-imidazole-4-sulfonamide], which IC50 is on record?
Answer: 84 nM

Question: With `COc1ccc(CC2CCCCC2)c(Nc2nc3ccccc3nc2NS(=O)(=O)c2ccc(CN(C)C)cc2)c1` [Example 87, N-(3-{[2-(cyclohexylmethyl)-5-methoxyphenyl]amino}quinoxalin-2-yl)-4-[(dimethylamino)methyl]benzenesulfonamide] as the molecule, how does the IC50 read?
Answer: 760 nM

Question: For `COc1ccc(CC2CCN(C(C)=O)CC2)c(Nc2nc3ccccc3nc2NS(C)(=O)=O)c1` [Example 18], which IC50 is on record?
Answer: 170 nM

Question: `COc1ccc(CCCO)c(Nc2nc3ccccc3nc2NS(=O)(=O)c2cn(C)c(CN(C)C)n2)c1` [Example 47, 2-[(Dimethylamino)methyl]-N-(3-{[2-(3-hydroxypropyl)-5-methoxyphenyl]amino}quinoxalin-2-yl)-1-methyl-1H-imidazole-4-sulfonamide] was tested. Which IC50 did it give?
Answer: 28 nM

Question: For `COc1ccc(CC2CCS(=O)(=O)CC2)c(Nc2nc3ccccc3nc2NS(=O)(=O)c2ccc(CN(C)C)cc2)c1` [Example 85, 4-[(dimethylamino)methyl]-N-[3-({2-[(1,1-dioxidotetrahydro-2H-thiopyran-4-yl)methyl]-5-methoxyphenyl}amino)quinoxalin-2-yl]benzenesulfonamide], which IC50 is on record?
Answer: 10 nM

Question: Which IC50 does the source give for `COc1ccc(CCCO)c(Nc2nc3ccccc3nc2NS(C)(=O)=O)c1` [Example 46, N-(3-{[2-(3-Hydroxypropyl)-5-methoxyphenyl]amino}quinoxalin-2-yl)methanesulfonamide] here?
Answer: 64 nM

Question: For `COc1ccc(CC(O)CO)c(Nc2nc3ccccc3nc2NS(=O)(=O)c2cn(C)cn2)c1` [Example 77, N-[3-({2-[(2R,2S)-2,3-Dihydroxypropyl]-5-methoxyphenyl}amino)quinoxalin-2-yl]-1-methyl-1H-imidazole-4-sulfonamide], which IC50 is on record?
Answer: 120 nM

Question: `COc1cc(CN2CCN(C)CC2)cc(Nc2nc3ccccc3nc2NS(=O)(=O)c2cccnc2)c1` [Example 92, N-[3-({3-methoxy-5-[(4-methylpiperazin-1-yl)methyl]phenyl}amino)quinoxalin-2-yl]pyridine-3-sulfonamide] was tested. Which IC50 did it give?
Answer: 970 nM

Question: `COc1ccc(CCOC(=O)[C@@H](NC(=O)OCC2c3ccccc3-c3ccccc32)C(C)C)c(Nc2nc3ccccc3nc2NS(=O)(=O)c2cn(C)cn2)c1` [Example 103, 2-{4-Methoxy-2-[(3-{[(1-methyl-1H-imidazol-4-yl)sulfonyl]amino}quinoxalin-2-yl)amino]phenyl}ethyl N-[(9H-fluoren-9-ylmethoxy)carbonyl]-L-valinate] was tested. Which IC50 did it give?
Answer: 1840 nM

Question: Which IC50 does the source give for `COc1ccc(CCCO)c(Nc2nc3ccccc3nc2NS(=O)(=O)c2ccc(NC(=O)CN(C)C)cc2)c1` [Example 71, 2-Dimethylamino-N-(4-{[(3-{[2-(3-hydroxypropyl)-5-methoxyphenyl]amino}quinoxalin-2-yl)]sulfamoyl}phenyl)-acetamide] here?
Answer: 32 nM

Question: With `CCCS(=O)(=O)Nc1nc2ccccc2nc1Nc1cc(OC)ccc1CCCO` [Example 49, N-(3-{[2-(3-Hydroxypropyl)-5-methoxyphenyl]amino}quinoxalin-2-yl)propane-1-sulfonamide] as the molecule, how does the IC50 read?
Answer: 49 nM

Question: `CCS(=O)(=O)Nc1nc2ccccc2nc1Nc1cc(OC)ccc1CCO` [Example 38, N-(3-{[2-(2-Hydroxyethyl)-5-methoxyphenyl]amino}quinoxalin-2-yl)ethanesulfonamide] was tested. Which IC50 did it give?
Answer: 60 nM

Question: For `COc1ccc(CN2CCN(C)CC2)c(Nc2nc3ccccc3nc2NS(=O)(=O)c2ccc(F)cc2)c1` [Example 82, 4-fluoro-N-[3-({5-methoxy-2-[(4-methylpiperazin-1-yl)methyl]phenyl}amino)quinoxalin-2-yl]benzenesulfonamide], which IC50 is on record?
Answer: 110 nM

Question: How did the IC50 turn out when `COc1ccc(CCO)c(Nc2nc3ccccc3nc2NS(=O)(=O)c2ccc(NC(=O)CN(C)C)cc2)c1` [Example 70, 2-Dimethylamino-N-(4-{[(3-{[2-(2-hydroxyethyl)-5-methoxyphenyl]amino}quinoxalin-2-yl)]sulfamoyl}phenyl)-acetamide] was run?
Answer: 27 nM

Question: Which IC50 does the source give for `COc1ccc(CCCO)c(Nc2nc3ccccc3nc2NS(=O)(=O)CCCS(C)(=O)=O)c1` [Example 60, N-(3-{[2-(3-Hydroxypropyl)-5-methoxyphenyl]amino}quinoxalin-2-yl)-3-(methylsulfonyl)propane-1-sulfonamide] here?
Answer: 120 nM

Question: How did the IC50 turn out when `COc1ccc(CC2CCOCC2)c(Nc2nc3ccccc3nc2NS(=O)(=O)c2ccc(F)cc2)c1` [Example 10, 4-fluoro-N-(3-{[5-methoxy-2-(tetrahydro-2H-pyran-4-ylmethyl)phenyl]amino}quinoxalin-2-yl)benzenesulfonamide] was run?
Answer: 150 nM

Question: With `COc1ccc(CCO)c(Nc2nc3ccccc3nc2NS(=O)(=O)c2c(C)noc2C)c1` [Example 43] as the molecule, how does the IC50 read?
Answer: 286 nM

Question: With `COc1ccc(CCCO)c(Nc2nc3ccccc3nc2NS(=O)(=O)C2CCS(=O)(=O)C2)c1` (stereo not shown) [Example 63, N-(3-{[2-(3-Hydroxypropyl)-5-methoxyphenyl]amino}quinoxalin-2-yl)tetrahydrothiophene-3-sulfonamide 1,1-dioxide] as the molecule, how does the IC50 read?
Answer: 130 nM

Question: `COc1ccc(CCS(C)(=O)=O)c(Nc2nc3ccccc3nc2NS(=O)(=O)CCCS(C)(=O)=O)c1` [Example 59, N-[3-({5-Methoxy-2-[2-(methylsulfonyl)ethyl]phenyl}amino)quinoxalin-2-yl]-3-(methylsulfonyl)propane-1-sulfonamide] was tested. Which IC50 did it give?
Answer: 350 nM

Question: For `COc1ccc(CC2CCN(C(=O)CN(C)C)CC2)c(Nc2nc3ccccc3nc2NS(=O)(=O)c2cn(C)cn2)c1` [Example 96, N-{3-[(2-{[1-(N,N-dimethylglycyl)piperidin-4-yl]methyl}-5-methoxyphenyl)amino]quinoxalin-2-yl}-1-methyl-1H-imidazole-4-sulfonamide], which IC50 is on record?
Answer: 100 nM

Question: With `COc1cc(Nc2nc3ccccc3nc2NS(=O)(=O)CCCS(C)(=O)=O)cc(C(=O)NCCO)c1` [Example 73, N-(2-Hydroxyethyl)-3-methoxy-5-{[3-({[3-(methylsulfonyl)propyl]sulfonyl}amino)quinoxalin-2-yl]amino}benzamide] as the molecule, how does the IC50 read?
Answer: 350 nM

Question: For `COCCc1ccc(OC)cc1Nc1nc2ccccc2nc1NS(=O)(=O)C1CCN(C(C)=O)CC1` [Example 101, 1-Acetyl-N-(3-{[5-methoxy-2-(2-methoxyethyl)phenyl]amino}quinoxalin-2-yl)piperidine-4-sulfonamide], which IC50 is on record?
Answer: 300 nM

Question: `COc1ccc(C(C)C)c(Nc2nc3ccccc3nc2NS(=O)(=O)c2cn(C)cn2)c1` [Example 30, N-{3-[(2-Isopropyl-5-methoxyphenyl)amino]quinoxalin-2-yl}-1-methyl-1H-imidazole-4-sulfonamide] was tested. Which IC50 did it give?
Answer: 200 nM

Question: For `COc1ccc(CCO)c(Nc2nc3ccccc3nc2NS(=O)(=O)C2CCCCC2)c1` [Example 45, N-(3-{[2-(2-Hydroxyethyl)-5-methoxyphenyl]amino}quinoxalin-2-yl) cyclohexanesulfonamide], which IC50 is on record?
Answer: 57 nM

Question: For `COc1ccc(CCS(C)(=O)=O)c(Nc2nc3ccccc3nc2NS(=O)(=O)C(C)C)c1` [Example 52, N-[3-({5-Methoxy-2-[2-(methylsulfonyl)ethyl]phenyl}amino)quinoxalin-2-yl]propane-2-sulfonamide], which IC50 is on record?
Answer: 160 nM

Question: How did the IC50 turn out when `COc1ccc(CCCO)c(Nc2nc3ccccc3nc2NS(=O)(=O)c2cccc(NC(=O)COCc3ccccc3)c2)c1` [Example 72] was run?
Answer: 480 nM

Question: For `COc1ccc(CCO)c(Nc2nc3ccccc3nc2NS(=O)(=O)c2ccc(CCCO)cc2)c1` [Example 93, N-(3-{[2-(2Hydroxyethyl)-5-methoxyphenyl]amino}quinoxalin-2-yl)-4-(3-hydroxypropyl)benzenesulfonamide], which IC50 is on record?
Answer: 36 nM

Question: With `COC(=O)c1ccc(OC)cc1Nc1nc2ccccc2nc1NS(C)(=O)=O` [Example 3, methyl 4-methoxy-2-({3-[(methylsulfonyl)amino]quinoxalin-2-yl}amino)benzoate] as the molecule, how does the IC50 read?
Answer: 1650 nM

From patent publication US8614215B2, “Quinoxaline inhibitors of phosphoinositide-3-kinases (PI3Ks)” (Merck Serono SA, priority 2007, dated 2013)
